In ChEMBL document CHEMBL2396640, “Exploring DOXP-reductoisomerase binding limits using phosphonated N-aryl and N-heteroarylcarboxamides as DXR inhibitors” (Bioorg Med Chem, 2013) one finds inhibition and Activity data, which are given here for 44 compounds.

SMILES strings stand for the structures. The source made the active and inactive calls. No cut-off for these calls is given here.

Experiment [1] relates to Escherichia coli. The experiment is described as follows: Inhibition of Escherichia coli DXR using DOXP as substrate assessed as conversion of NADPH to NADP at 250 uM preincubated for 5 mins measured after 10 mins relative to control.
Experiment [2] relates to Plasmodium falciparum. The experiment is described as follows: Inhibition of Plasmodium falciparum DXR using DOXP as substrate assessed as conversion of NADPH to NADP at 250 uM preincubated for 5 mins relative to control.
Experiment [3] concerns Escherichia coli. Nature of the experiment: Inhibition of Escherichia coli DXR using DOXP as substrate assessed as conversion of NADPH to NADP at 250 uM preincubated for 5 mins relative to control.
The test system of experiment [4] is Plasmodium falciparum. The experiment is described as follows: Activation of Plasmodium falciparum DXR using DOXP as substrate assessed as conversion of NADPH to NADP at 250 uM preincubated for 5 mins relative to control.
The test system of experiment [5] is Escherichia coli. Nature of the experiment: Binding affinity to Escherichia coli DXR at 20 uM by STD-NMR analysis.
Experiment [6] deals with Escherichia coli. The experiment is described as follows: Inhibition of Escherichia coli DXR using DOXP as substrate assessed as conversion of NADPH to NADP at 500 uM preincubated for 5 mins.
The subject of experiment [7] is Escherichia coli. The experiment is described as follows: Activation of Escherichia coli DXR using DOXP as substrate assessed as conversion of NADPH to NADP at 250 uM preincubated for 5 mins.
Experiment [8] concerns Escherichia coli. Nature of the experiment: Activation of Escherichia coli DXR using DOXP as substrate assessed as conversion of NADPH to NADP at 500 uM preincubated for 5 mins.

Regarding `O=C(CCP(=O)(O)O)Nc1cccc(O)c1`, the inhibition (as a rule, the change of the read-out against control, counted positive when it falls) came out at 49.2% in experiment [1], 1.1% in experiment [2] and 23.7% in experiment [3].
In the case of `CCOP(=O)(CCC(=O)Nc1cccc(O)c1)OCC`, the inhibition amounted to 33.5% in experiment [1] and 23.1% in experiment [3]. In experiment [4], the result was Active.
For `CC(=O)c1sc(NC(=O)CP(=O)(O)O)nc1C`, in experiment [5], the result was Active. Also, the inhibition in experiment [6] turned out to be 16.6%.
Turning to `CCOP(=O)(CC(=O)Nc1nccs1)OCC`, the outcome in experiment [5] was Active. The inhibition in experiment [6] worked out at 28.9%.
On the same counts, the results for `O=C(CCP(=O)(O)O)Nc1nccs1` are “Active” and 0.2%.
The like results for `O=C(CP(=O)(O)O)Nc1ccon1` were, in that order, “Active” and 12.2%.
In the case of `O=C(CCP(=O)(O)O)Nc1ccccn1`, in experiment [5], the outcome was Active. Also, in experiment [6], the inhibition was found to be 0%.
Consider `CCOP(=O)(CCC(=O)Nc1ccon1)OCC`, for which, in experiment [5], the result was Active. The inhibition in experiment [6] was found to be 0%.
As for `CCOP(=O)(CCC(=O)Nc1nc(C)c(C(C)=O)s1)OCC`, in experiment [5], the outcome was Active. Besides, the inhibition in experiment [6] was 0.3%.
In the case of `COc1cccc(NC(=O)CCCCP(=O)(O)O)c1`, in experiment [7], the result was Active.
Regarding `CCOP(=O)(CC(=O)Nc1ccon1)OCC`, the result in experiment [5] was Active. Moreover, the inhibition in experiment [6] was 11.7%.
For the compound `O=C(CP(=O)(O)O)Nc1cccc(O)c1`, the inhibition in experiment [1] was 43.9%; in experiment [2], 45.2%; in experiment [3] it was 34.4%.
Turning to `CCOP(=O)(CC(=O)NCc1ccco1)OCC`, the result in experiment [5] was Active. For the same compound, the inhibition in experiment [6] is 67.7%.
As to `CC(=O)c1sc(NC(=O)CCP(=O)(O)O)nc1C`, the result in experiment [5] was Active. The inhibition in experiment [6] amounted to 0%.
On to `CCOP(=O)(CCCCC(=O)Nc1cccc(O)c1)OCC`, for which, in experiment [7], the outcome was Active.
Take `O=C(CCP(=O)(O)O)Nc1ccon1`: in experiment [5], the outcome was Active. In addition, the inhibition in experiment [6] worked out at 0.2%.
Regarding `O=C(CCP(=O)(O)O)NCc1ccco1`, in experiment [5], the outcome was Active. Moreover, the inhibition in experiment [6] turned out to be 0.3%.
The like results for `CCOP(=O)(CC(=O)Nc1nc(C)c(C(C)=O)s1)OCC` were, in that order, “Active” and 21.6%.
As for `CCOP(=O)(CC(=O)Nc1cccc(O)c1)OCC`, the inhibition in experiment [1] was 24.4%; in experiment [2] it was 12%; in experiment [3] it was 44.6%.
With `O=C(CCCCP(=O)(O)O)Nc1cccc(O)c1`, in experiment [5], the result was inactive. In experiment [7], the result was Active.
With `CCOP(=O)(CCC(=O)NCc1ccco1)OCC`, the outcome in experiment [5] was Active. Also, in experiment [6], the inhibition stood at 0.2%.
With `O=C(CCCCP(=O)(O)O)Nc1cccc(Br)c1`, in experiment [5], the outcome was inactive. In addition, in experiment [7], the result was Active.
Consider `CCOP(=O)(CCC(=O)Nc1cccc(CO)c1)OCC`, for which the inhibition in experiment [1] is 17.9%; in experiment [3], 17.1%. The outcome in experiment [4] was Active.
As for `N#Cc1cccc(NC(=O)CCCP(=O)(O)O)c1`, in experiment [5], the outcome was inactive.
`O=C(CCCP(=O)(O)O)Nc1cccc(O)c1`: in experiment [1], the inhibition was 0.7%.
As to `O=C(CP(=O)(O)O)NCc1ccco1`, in experiment [5], the outcome was Active. Moreover, the inhibition in experiment [6] was 30%.
`CCOP(=O)(CCCCC(=O)Nc1cccc(OC)c1)OCC`: the result in experiment [7] was Active.
Turning to `CCOP(=O)(CCC(=O)Nc1ccccn1)OCC`, the result in experiment [5] and in experiment [8] was Active.
In the case of `O=C(CP(=O)(O)O)Nc1nccs1`, in experiment [5], the outcome was Active. In addition, the inhibition in experiment [6] worked out at 7.4%.
`COc1cccc(NC(=O)CCP(=O)(O)O)c1`: the inhibition in experiment [3] is 8.7%. Also, the result in experiment [4] and in experiment [7] was Active.
In the case of `CCOP(=O)(CC(=O)Nc1ccccn1)OCC`, the outcome in experiment [5] was Active. For the same compound, the inhibition in experiment [6] worked out at 58.5%.
`CCOP(=O)(CCCC(=O)Nc1cccc(Br)c1)OCC`: the result in experiment [7] was Active.
For `CCOP(=O)(CCC(=O)Nc1nccs1)OCC`, the result in experiment [5] was Active. Besides, the inhibition in experiment [6] was determined as 0.1%.
`CCOP(=O)(CC(=O)Nc1cccc(OC)c1)OCC`: in experiment [3], the inhibition came out at 11%. Besides, the outcome in experiment [4] was Active.
For the compound `CCOP(=O)(CC(=O)Nc1cccc(CO)c1)OCC`, the inhibition in experiment [2] came to 40.7%; in experiment [3], 40.4%.
`CCOP(=O)(CC(=O)Nc1cccc(C#N)c1)OCC`: the inhibition in experiment [1] came to 11.9%; in experiment [2], 4.8%; in experiment [3], 21.9%.
On to `O=C(CCP(=O)(O)O)Nc1cccc(CO)c1`, for which the inhibition in experiment [1] was 26.8%; in experiment [2] it was 10.9%; in experiment [3] it was 16%.
Regarding `N#Cc1cccc(NC(=O)CP(=O)(O)O)c1`, the inhibition in experiment [1] was 20%; in experiment [3] it was 8.2%. In experiment [4], the result was Active.
Consider `O=C(CP(=O)(O)O)Nc1ccccn1`, for which the result in experiment [5] and in experiment [8] was Active.
Regarding `CCOP(=O)(CCC(=O)Nc1cccc(OC)c1)OCC`, the inhibition is 14.1% in experiment [1] and 23.3% in experiment [3]. Besides, the outcome in experiment [4] was Active.
For the compound `O=C(CP(=O)(O)O)Nc1cccc(Br)c1`, the inhibition in experiment [1] worked out at 26.8%; in experiment [2], 42%; in experiment [3] it was 22.3%.
Turning to `CCOP(=O)(CC(=O)Nc1cccc(Br)c1)OCC`, the inhibition worked out at 21.4% in experiment [1] and 16.3% in experiment [3]. The outcome in experiment [4] was Active.
`COc1cccc(NC(=O)CP(=O)(O)O)c1`: the inhibition was 17.8% in experiment [1], 40.8% in experiment [2] and 31.9% in experiment [3].
Consider `CCOP(=O)(CCCC(=O)Nc1cccc(O)c1)OCC`, for which the inhibition in experiment [1] was found to be 0.8%.
